Laboratory results as given in patent US6573269B1, “Pyrimidine-2,4,6-trione light screening compositions” (Roche Vitamins Inc., priority 1999, dated 2003).

Key:
Type in all cases: physicochemical
[1] = Photostability: irradiation in high dilution with a Hg-lamp (150 W from Hereus); details: irradiated in high dilution with a Hg-lamp (150 W)
Experimental: A 100 ml three necked reaction flask equipped with a thermometer, a reflux condenser, and a magnetic stirrer under nitrogen atmosphere was charged with 1.1 g (5 mmol) of 4-(2-ethyl-hexyloxy)-phenylamine (Example 1b), 1.06 g (5 mmol) of 1,3-diisopropyl-pyrimidine-2,4,6-trione (Example 1c) and 11.1 g (75 mmol) of triethyl orthoformate in 10 ml of tetrahydrofuran. This mixture was refluxed for 18 hours followed by washing twice with water, dried with Na2SO4, and concentrated on a rotary evaporator. The raw product was recrystallized in ethanol to yield 0.84 g of yellowish crystals. M.p. 74-76° C., UV 355 nm (32,122).

[2] = UV absorption (UV-A filter property); details: for UV extinction (ε) at absorption maximum: value in brackets after the UV maximum
Description: The compounds of formula I have adsorption maxima in the range of 320 nm to 400 nm, the so called UV-A radiation.

[3] = Measurement of solubility in cosmetic solvents Cétiol LC and Crodamol DA; details: oversaturated solution, overnight at 25° C., filtered, UV measurement in CH2Cl2
Experimental: e) Measurement of solubility in Cétiol LC (cocoyl caprylate caprate) and Crodamol DA (diisopropyl adipate).
After standing overnight at 25° C., the solution was filtered through a microfilter (Millipore, pore size 0.5 , μm), followed by UV measurement in CH2Cl2. The extinctions were compared with the extinctions of the pure compound.

Compound | photostability [1] | UV absorption maximum [2] [nm] | UV extinction (ε) at absorption maximum [2] | solubility in Crodamol DA (diisopropyl adipate) [3] | solubility in Cétiol LC (cocoyl caprylate caprate) [3]
CCCCCCCC(=O)Oc1ccc(NC=C2C(=O)N(C(C)C)C(=O)N(C(C)C)C2=O)cc1 [Example 8, 5-{(4-Capryloxy-phenylamine)-methylene}-1,3-diisopropyl-pyrimidine-2,4,6-trione] | photostable | 346 | 33,768 | 18.5% | 6.6%
C=C(COc1ccc(NC=C2C(=O)N(C(C)C)C(=O)N(C(C)C)C2=O)cc1)[Si](C)(O[Si](C)(C)C)O[Si](C)(C)C [Example 3, 5-{[4-(2-(1,3,3,3-tetramethyl-1-[(trimethylsilyl)-oxy]-disiloxanyl)-prop-2-enyloxy)-phenylamine]-methylene}-1,3-diisopropyl-pyrimidine-2,4,6-trione] | excellent | 354 | 31,520 | unlimited | unlimited
CCCCC(CC)COc1ccc(NC=C2C(=O)N(C(C)C)C(=O)N(C(C)C)C2=O)cc1 (stereo not shown) [Example 1, 5-{[4-(2-Ethyl-hexyloxy)-phenylamine]-methylene}-1,3-diisopropyl-pyrimidine-2,4,6-trione] | photostable | 355 | 32,122 | 26.9% | 15.5%
CC(C)N1C(=O)C(=CNc2ccc(O)cc2O)C(=O)N(C(C)C)C1=O [Example 7, 5-{(2,4-Dihydroxy-phenylamine)-methylene}-1,3-diisopropyl-pyrimidine-2,4,6-trione] | photostable | 363 | 23,564 | 4.1% | –
CCCCCCCC(=O)Oc1ccc(NC=C2C(=O)N(C(C)C)C(=O)N(C(C)C)C2=O)c(OC(=O)CCCCCCC)c1 [Example 9 diester] | – | 351 | 31,349 | – | easily mixable with Cétiiol LC in any proportion
CC(C)N1C(=O)C(=CNc2ccc(O)cc2)C(=O)N(C(C)C)C1=O [Example 6, 5-{(4-Hydroxy-phenylamine)-methylene}-1,3-diisopropyl-pyrimidine-2,4,6-trione] | photostable | 351 | 27,911 | 3.6% | –
CCCCCCCC(=O)Oc1ccc(NC=C2C(=O)N(C(C)C)C(=O)N(C(C)C)C2=O)c(O)c1 [5-{[(2-hydroxy-4-capryloxy)-phenylamine])-methylene}-1,3-diisopropyl-pyrimidine-2,4,6-trione] | – | 354 | 25,813 | – | –
C#CCOc1ccc(NC=C2C(=O)N(C(C)C)C(=O)N(C(C)C)C2=O)cc1 [Example 2, 5-{(4-Propargyloxy-phenylamine)-methylene}-1,3-diisopropyl-pyrimidine-2,4,6-trione] | photostable | 352 | 31,596 | – | –
